In PMC7127144 (Bioorganic & Medicinal Chemistry, 2006):

How the values were obtained:
PBM cells = conditions: human
HIV-1 (strain LAI) = format: cell-based
[1] = system: Punta Toro virus (strain Adames)
in vitro [2] = conditions: human
in vitro [3] = conditions: human; remark: listed apart in the source
SARSCoV = test: organism not typed; format: cell-based; conditions: read-out: SARSCoV IC50

Which IC50 (PBM cells) does the source give for Cc1cn([C@H]2C[C@H](N=[N+]=[N-])[C@@H](CO)O2)c(=O)[nH]c1=O [AZT] here?
Its IC50 is over 100 µM.

For Nc1ncnc2c([C@@H]3C=C(CO)[C@@H](O)[C@H]3O)c[nH]c12 [Compound 1, (1′S,2′S,3′R)-4-Amino-7-(2′,3′-dihydroxy-4′-hydroxymethyl-4′-cyclopenten-1′-yl)-5H-pyrrolo[3,2-d]pyrimidine], which “Anti-HIV activity (in words)” value (HIV-1 (strain LAI)) is on record?
The value was “moderate anti-HIV activity”.

Which “Cytotoxicity in the Punta Toro virus assay (in words)” value [1] does the source give for Nc1nc(O)c2[nH]cc([C@@H]3C=C(CO)[C@@H](O)[C@H]3O)c2n1 [Compound 2, (1′S,2′S,3′R)-9-(2′,3′-Dihydroxy-4′-hydroxymethyl-4′-cyclopenten-1′-yl)-deazaguanosine] here?
The value was “without any cytotoxicity”.

And the IC50 (in vitro [2])?
Its IC50 is over 100 µM.

What about the IC50 (in vitro [3]) of the same molecule?
Its IC50 is over 100 µM.

And the IC50 (SARSCoV)?
Its IC50 is over 100 µM.

Which IC50 (in vitro [2]) does the source give for Nc1nc(=O)c([C@@H]2C=C(CO)[C@@H](O)[C@H]2O)c[nH]1 [Compound 3, (1′S,2′S,3′R)-5-(2′,3′-Dihydroxy-4′-hydroxymethyl-4′-cyclopenten-1′-yl)-isocytosine] here?
The IC50 was over 100 µM.

What about the IC50 (in vitro [3]) of the same molecule?
Its IC50 is over 100 µM.

What about the IC50 (SARSCoV) of the same molecule?
The IC50 was over 100 µM.

For O=c1[nH]cc([C@@H]2C=C(CO)[C@@H](O)[C@H]2O)c(=O)[nH]1 [Compound 4, (1′S,2′S,3′R)-5-(2′,3′-Dihydroxy-4′-hydroxymethyl-4′-cyclopenten-1′-yl)uracil], which “Cytotoxicity in the Punta Toro virus assay (in words)” value [1] is on record?
The value was “without any cytotoxicity”.

What about the IC50 (in vitro [2]) of the same molecule?
The IC50 was over 100 µM.

What about the IC50 (in vitro [3]) of the same molecule?
The IC50 was over 100 µM.

What about the IC50 (SARSCoV) of the same molecule?
The IC50 was over 100 µM.
